One test deals with Phytophthora capsici. Put plainly: In vitro fungitoxicity (growth inhibition) against Phytophthora capsici in copper-minus AS and copper-plus AS medium. It counts as cell-based. Particulars: CuCl2, 50 uM; no test compound; across experiments. The procedure: In vitro fungitoxicity assays against Phytophthora capsici were conducted using the asparagine-sucrose (AS) medium described in Canadian Journal of Microbiology 1961, 7, 15-25, except that copper micronutrient, normally included as CuSO4, was omitted. The medium, termed “copper-minus AS”, was prepared by dissolving 2 g asparagine, 0.43 g KH2PO4, 0.3 g K2HPO4, 0.4 mL of a 0.5 mg/mL thiamine-HCl solution and 15 g sucrose in 1 liter of deionized water and treating the solution with 0.5 g Chelex 100 resin (Bio-Rad Analytical grade, 50-100 mesh, sodium form, cat #142-2822) by stirring at room temperature for 1 h. The pH was adjusted to 6.4, then MgSO4.7H2O (100 μg/mL), FeSO4.7H2O (1 μg/mL), CaCl2 (50 μg/mL), ZnSO4.7H2O (1 μg/mL), NaMoO4.2H2O (0.2 μg/mL) and MnCl2.4H2O (0.2 μg/mL) were added and the entire medium was sterilized by filtration. […]
Phytophthora capsici was grown on petri plates, 9 cm in diameter, containing 15 mL V-8 agar, pH 7.0, containing 200 mL V-8 juice, 4 g CaCO3, and 20 g agar per liter. […] Microtiter plates were inoculated with 100 μL of spore suspension and incubated at 25° C. for 48 h before assessing fungal growth by measuring light scattering in a NepheloStar plate reader. Growth inhibition was determined by comparing growth in the presence of test compound with growth in control wells lacking test compound. […]

In test [1] the test system is Leptosphaeria nodorum (LEPTNO). Put plainly: In vitro fungitoxicity (growth inhibition) against Leptosphaeria nodorum in copper-minus and copper-plus medium. It counts as cell-based. Particulars: 0.05 μg/mL, 72 h at 25° C.; for LEPTNO % Inhn. Plus Copper Observed: copper-plus medium (CuCl2, 10 μM); for inhibition of growth at 0.05 µg/mL: Parastagonospora nodorum, read-out: LEPTNO % Inhn. Minus Copper Observed. The procedure: In vitro fungitoxicity assays against Leptosphaeria nodorum (LEPTNO) were conducted using the liquid growth medium described by Coursen and Sisler (American Journal of Botany 1960, 47, 541-549) except that copper micronutrient, normally included as CuSO4, was omitted. The medium, termed “copper-minus”, was prepared by dissolving 10 g glucose, 1.5 g K2HPO4, 2 g KH2PO4 and 1 g (NH4)2SO4 in 1 liter of deionized water and treating the solution with 0.5 g Chelex 100 resin (Bio-Rad Analytical grade, 50-100 mesh, sodium form, cat #142-2822) by stirring at room temperature for 1 h. MgSO4.7H2O (0.5 g) was added, and stirring was continued for a further hour. Trace elements (minus CuSO4), and vitamins described by Coursen and Sisler were added from concentrated stock solutions and the entire medium was sterilized by filtration. Medium containing copper was prepared by adding CuCl2.2H2O to the copper-minus medium at 20 μM. Test compounds were dissolved in dimethylsulfoxide (DMSO) then dilutions in copper-minus and copper-plus growth media were prepared as 100 μL aliquots in flat-bottomed 96-well microtiter plates.
LEPTNO was grown on potato dextrose agar in 9 cm diameter petri dishes for 7 days. Sterile deionized water (20 mL) was added to a culture plate and spores suspended by scraping the surface gently with a sterile plastic loop. The resulting suspension was filtered through a double layer of sterile cheesecloth. Filtered spore suspension (5 mL) was centrifuged in a bench centrifuge at 2000 rpm for 2 min. The resulting spore pellet was resuspended in 10 mL sterile deionized water (which had been treated with Chelex 100 resin using 0.5 g resin per liter of water by stirring at room temperature for 1 h), and recentrifuged. The spores were resuspended in copper-minus medium, and the suspension adjusted to 2×10^5 spores per mL. Microtiter plates were inoculated with 100 μL of this spore suspension and the plates incubated at 25° C. for 72 h before assessing fungal growth by measuring light scattering in a NepheloStar plate reader. Growth inhibition was determined by comparing growth in the presence of test compound with growth in control wells lacking test compound.
Results for growth inhibition by test compounds in copper-plus medium (“% Inhn Plus Copper Observed”) were compared with predicted values (“% Inhn Plus Copper Predicted”) that were calculated using the formula set forth by S. R. Colby in Weeds 1967, 15, 20-22 based on results obtained for the same compounds in copper-minus medium (“% Inhn Minus Copper Observed”) and the inhibition attributed to copper chloride alone, as determined by comparing growth in copper-minus and copper-plus media without any test compound across experiments. Results illustrate that hydrazones and copper produce a synergistic fungitoxic effect towards LEPTNO.

The next test concerns Phytophthora infestans. The class given is in vivo, Phytophthora infestans on tomato plant. The following applies: 50 ppm hydrazone with 50 μM CuCl2.2H2O; applied 24 h before inoculation; assessed 7 days after inoculation; tomato.
In test [2] the test system is Staphylococcus aureus, Escherichia coli, Aspergillus niger and A. flavus. The following applies: literature report (Proc. Natl. Acad. Sci. India 1991); cited from earlier work.

Regarding `O.O.[Cl][Cu][Cl]` [CuCl2, CuCl2.2H2O, reference compound], the “% Inhn attributed to copper chloride alone (Phytophthora capsici)” value with Phytophthora capsici is on record as 4.5 ± 7.9%.

Take `O=C(N/N=C/c1cc(Cl)ccc1O)c1ccc(C(F)(F)F)cc1` [Compound 33]: the “LEPTNO % Inhn. Minus Copper Observed” value in test [1] (copper-minus medium) is given as 20.7%.

Regarding `O=C(N/N=C/c1cc(Br)cc(Br)c1O)c1cc(Cl)ccc1Br` [Compound 37], the “TLB % Control” value in the test on Phytophthora infestans came out at 68.4%. In test [1], the “LEPTNO % Inhn. Plus Copper Observed” value was 97.9%. The inhibition of growth at 0.05 µg/mL in test [1] (copper-minus medium) came out at 34.5%.

Regarding `O=C(NN=Cc1ccccc1O)c1ccccc1O` [o-hydroxybenzaldehyde-N-salicyloylhydrazone], the Antimicrobial activity result in test [2] is on record as “Antimicrobial activity has been reported”.

With `O=C(N/N=C/c1cc(Cl)cc(Cl)c1O)c1cc(Cl)ccc1Br` [Compound 36], the “TLB % Control” value with Phytophthora infestans turned out to be 70.9%. Further, in test [1], the “LEPTNO % Inhn. Plus Copper Observed” value turned out to be 92.5%. The inhibition of growth at 0.05 µg/mL in test [1] (copper-minus medium) is 0%.
